# Data published in PMC8746493, “Co-Inhibition of P-gp and Hsp90 by an Isatin-Derived Compound Contributes to the Increase of the Chemosensitivity of MCF7/ADR-Resistant Cells to Doxorubicin” (Molecules, 2021).
# Biological target: T1, Hsp90α (Homo sapiens, UniProt P07900)
# T1 construct: gene HSP90AA1; full length protein
# Assay: SPR (Biacore […], immobilized recombinant Hsp90α)
# Assay type: binding
smiles,measurement,value
"O=C(CN1C(=O)NC(c2ccccc2)(c2ccccc2)C1=O)NN=C1C(=O)Nc2ccc(F)cc21 [compound 16, HAA2021]",Kd,41.2 ± 2.1 nM
